Results published in PubChem BioAssay (NCI).
Where “and” joins values, the source holds several entries; their conditions need not be identical. Identical values can stand only once.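 Interpolation was linear, between the two tested concentrations surrounding the appropriate level; five concentrations were tested over 48 hours in 96-well plates. The concentration for 50% growth inhibition is given as GI50. TGI: total growth inhibition.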

What was measured:
Experiment in all cases: NCI-60 cell line screen, 48 h
SF-539 CNS = system: SF-539 CNS
RXF 393 renal = system: RXF 393 renal
SK-MEL-5 melanoma = system: SK-MEL-5 melanoma
TK-10 renal = system: TK-10 renal
MALME-3M melanoma = system: MALME-3M melanoma
CCRF-CEM leukemia = system: CCRF-CEM leukemia
A498 renal = system: A498 renal
NCI/ADR-RES ovarian = system: NCI/ADR-RES ovarian
UO-31 renal = system: UO-31 renal
NCI-H23 lung = system: NCI-H23 lung

Structure (SMILES)	GI50 (SF-539 CNS)	TGI (SF-539 CNS)	GI50 (RXF 393 renal) [µM]	TGI (RXF 393 renal)	GI50 (SK-MEL-5 melanoma) [µM]	TGI (SK-MEL-5 melanoma)	GI50 (TK-10 renal) [µM]	TGI (TK-10 renal)	GI50 (MALME-3M melanoma) [µM]	TGI (MALME-3M melanoma)	GI50 (CCRF-CEM leukemia)	TGI (CCRF-CEM leukemia)	GI50 (A498 renal) [µM]	TGI (A498 renal)	GI50 (NCI/ADR-RES ovarian) [µM]	TGI (NCI/ADR-RES ovarian) [µM]	GI50 (UO-31 renal)	TGI (UO-31 renal)	GI50 (NCI-H23 lung)	TGI (NCI-H23 lung) [µM]
Cc1ccc(-c2c3c(N)c4c(nc3nc3c2c(C)nn3-c2ccccc2)CCC4)cc1	1.86 µM	3.46 µM	1.58	3.25 µM	1.73	3.31 µM	2.43	5.42 µM	18.4	39.1 µM	2.54 µM	7.2 µM	16.1	32.6 µM	8.23	32.3	1.87 µM	3.94 µM	17.5 µM	40
O=C1NC(c2ccccc2)N=C2Oc3ccccc3C=C12 (stereo not given)	–	17.6 µM	–	> 100 µM	–	> 100 µM	–	> 100 µM	–	> 100 µM	–	2.65 µM	–	> 81.8 µM	–	> 31.3	–	> 100 µM	–	> 100
O=C1OC(OC/C(Br)=C(/Br)COC2OC(=O)C(Cl)=C2Cl)C(Cl)=C1Cl (stereo not given)	–	36.7 µM	–	13.4 µM	–	26.8 µM	–	27 µM	–	21.2 µM	–	4.93 µM	–	38 µM	–	36.9	–	15.6 µM	–	22.5
c1ccc2c(CN3CCC(C4CCN(Cc5cccc6ccccc56)CC4)CC3)cccc2c1	3.63 µM and 8.99 µM	9.53 µM and 18 µM	–	26.9 µM and 43.3 µM	–	14.2 µM and 9.41 µM	–	42.8 µM and > 31.6 µM	–	4.87 µM and 14.6 µM	13.7 µM and 4 µM	65.3 µM and > 31.6 µM	7.34	> 72.8 µM and 86 µM	–	> 100	3.84 µM and 29.4 µM	16.2 µM and > 100 µM	23.2 µM and > 100 µM	> 100
Cn1c2ccccc2c2[nH]c3ccccc3c(=O)c21	–	> 100 µM	–	> 100 µM	–	> 100 µM	–	> 100 µM	–	> 100 µM	–	> 100 µM	–	> 100 µM	–	> 100	–	> 100 µM	–	> 100
NS(=O)(=O)c1ccc(N2N=C(c3cccs3)CC2c2ccccc2O)cc1 (stereo not given)	0.706 µM	1.76 µM	0.733	2.2 µM	1.47	5.68 µM	1.09	5.47 µM	4.81	13.5 µM	1.4 µM	> 33.3 µM	0.835	4.01 µM	4.84	19	4.01 µM	12.1 µM	1.3 µM	8.47
CC(C)=CCc1cc(C2COc3cc4c(c(O)c3C2=O)C=CC(C)(C)O4)c(O)cc1O (stereo not given)	–	34.3 µM	–	20.6 µM	–	25 µM	–	31.7 µM	–	28.3 µM	–	28.7 µM	–	33.2 µM	–	79.4	–	26 µM	–	32.6
Nc1cc(-c2ccccc2)n(C(=O)Nc2ccc(Oc3ccccc3)cc2)n1	30.1 µM	> 100 µM	23	68.3 µM	> 100	> 100 µM	69.7	> 100 µM	> 100	> 100 µM	18.9 µM	93.3 µM	> 100	> 100 µM	75.4	> 100	52.5 µM	> 100 µM	> 100 µM	> 100
O=C(Cn1c2ccccc2c2ccncc21)N/N=C\c1ccc2ccccc2c1	13.6 µM	28.7 µM	19	54.4 µM	23	> 100 µM	27.3	54.7 µM	11.4	45.6 µM	45.1 µM	> 100 µM	27.5	80.8 µM	15.8	> 100	13.3 µM	45.6 µM	17.6 µM	52.6
Cc1cn(Cc2ccccc2CCl)c(=O)n(Cc2ccccc2CCl)c1=O	2.47 µM	5.65 µM	1.57	3.22 µM	1.56	2.93 µM	2.92	6.53 µM	2.03	4.02 µM	1.93 µM	5.5 µM	10.6	27.4 µM	2.22	6.36	1.65 µM	3.17 µM	2.19 µM	5.43
CN(C)N=Nc1nn(C(=O)Nc2ccc(Cc3ccccc3)cc2)c2ccccc12	1.46 µM	> 23.7 µM	> 28.9	> 100 µM	0.122	1.09 µM	> 100	> 100 µM	6.6	> 100 µM	4.42 µM	> 100 µM	> 58.9	> 100 µM	0.957	> 100	3.23 µM	> 79 µM	7.58 µM	> 100
CC1=NN(c2ccccc2)C(=O)C1N=Nc1ccc(S(N)(=O)=O)cc1 (stereo not given)	–	> 100 µM	–	> 100 µM	–	> 100 µM	–	> 100 µM	–	> 100 µM	–	> 100 µM	–	> 100 µM	–	> 100	–	> 100 µM	–	> 100
